The record followed here is patent US9290451B2 (Hoffmann-La Roche Inc., priority 2011, dated 2016).

One test concerns the target human CB1 receptors (Homo sapiens (Human), UniProt P21554). Kind of test: cAMP assay, CHO cells expressing human CB1 receptors. The settings on record: CHO cells expressing human CB1, cAMP; read-out: human CB1 EC50. The class given is cell-based. In a few lines: (§1)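 EC50 values come from a TR-FRET cAMP read-out (standard curve 10 μM–0.13 nM cAMP) after 30 min compound exposure at 30 °C in IBMX (1 mM)-containing Krebs Ringer bicarbonate buffer, using CHO cells carrying human CB1 or CB2 receptors.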

The next test addresses human CB2 receptors (Homo sapiens (Human), UniProt P34972). Kind of test: cAMP assay, CHO cells expressing human CB2 receptors. Particulars: CHO cells expressing human CB2, cAMP; read-out: human CB2 EC50. The class given is cell-based. In short, it runs like this:
as §1
Background: cAMP levels reflect the balance of adenylyl cyclase and phosphodiesterase activity.

Chain of human CB1 receptors (P21554 whole entry): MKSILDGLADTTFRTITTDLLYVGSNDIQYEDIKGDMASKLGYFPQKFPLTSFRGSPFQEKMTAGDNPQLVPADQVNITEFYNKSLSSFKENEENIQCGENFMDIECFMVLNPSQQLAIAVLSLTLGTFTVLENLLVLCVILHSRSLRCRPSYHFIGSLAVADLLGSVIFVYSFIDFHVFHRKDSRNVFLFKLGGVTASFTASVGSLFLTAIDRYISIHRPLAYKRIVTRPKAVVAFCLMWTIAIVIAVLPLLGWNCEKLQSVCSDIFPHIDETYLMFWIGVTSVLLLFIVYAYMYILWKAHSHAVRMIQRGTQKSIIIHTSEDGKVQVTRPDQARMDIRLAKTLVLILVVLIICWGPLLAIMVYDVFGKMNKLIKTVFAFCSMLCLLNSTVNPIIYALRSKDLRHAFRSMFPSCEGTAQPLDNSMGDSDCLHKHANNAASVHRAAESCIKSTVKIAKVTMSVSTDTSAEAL
Chain of human CB2 receptors (P34972 whole entry): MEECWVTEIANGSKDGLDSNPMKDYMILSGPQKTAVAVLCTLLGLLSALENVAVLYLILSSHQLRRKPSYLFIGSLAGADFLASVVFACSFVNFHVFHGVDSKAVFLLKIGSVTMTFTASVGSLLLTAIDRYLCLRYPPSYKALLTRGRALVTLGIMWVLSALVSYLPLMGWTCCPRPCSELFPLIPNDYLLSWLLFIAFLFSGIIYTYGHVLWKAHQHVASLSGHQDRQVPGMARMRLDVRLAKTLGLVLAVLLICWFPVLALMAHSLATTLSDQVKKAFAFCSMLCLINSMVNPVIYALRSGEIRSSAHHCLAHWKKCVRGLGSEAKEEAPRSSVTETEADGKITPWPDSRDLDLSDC

By EC50 is commonly meant the concentration at which the effect is half-maximal. As for `Cc1csc(C(C)(C)NC(=O)c2ccc(C3CC3)c(OCC3CC3)n2)n1` [Example 294, 5-Cyclopropyl-6-cyclopropylmethoxy-pyridine-2-carboxylic acid [1-methyl-1-(4-methyl-thiazol-2-yl)-ethyl]-amide], the EC50 on human CB1 receptors was over 10 µM; on human CB2 receptors it was 0.112 µM.
In the same order, the values of `CC1(COc2nc(C(=O)NC(C)(C)c3nccs3)ccc2N2CC(F)(F)C2)COC1` [Example 295, 5-(3,3-Difluoro-azetidin-1-yl)-6-(3-methyl-oxetan-3-ylmethoxy)-pyridine-2-carboxylic acid (1-methyl-1-thiazol-2-yl-ethyl)-amide] are over 10 µM and 0.259 µM.
For `CC(C)(NC(=O)c1ccc(C2CC2)c(OCC2CC2)n1)c1noc(N)n1` [Example 296, 5-Cyclopropyl-6-cyclopropylmethoxy-pyridine-2-carboxylic acid [1-(5-amino-[1,2,4]oxadiazol-3-yl)-1-methyl-ethyl]-amide] the same measures were over 10 µM and 0.0608 µM.
For `CCC(CC)(NC(=O)c1cccc(OCC(F)(F)C(F)(F)F)n1)C(=O)NC` [Example 297, 6-(2,2,3,3,3-Pentafluoro-propoxy)-pyridine-2-carboxylic acid (1-ethyl-1-methylcarbamoyl-propyl)-amide] the same measures were over 10 µM and 0.962 µM.
On to `CCC(CC)(NC(=O)c1ccc(C2CC2)c(OCC(F)(F)C(F)(F)F)n1)C(=O)NC` [Example 298, 5-Cyclopropyl-6-(2,2,3,3,3-pentafluoro-propoxy)-pyridine-2-carboxylic acid (1-ethyl-1-methylcarbamoyl-propyl)-amide], for which the EC50 at human CB1 receptors was over 10 µM; on human CB2 receptors it was 0.0142 µM.
For `CNC(=O)[C@H](CC(C)(C)C)NC(=O)c1ccc(C2CC2)c(OCC(F)(F)C(F)(F)F)n1` [Example 299, 5-Cyclopropyl-6-(2,2,3,3,3-pentafluoro-propoxy)-pyridine-2-carboxylic acid ((S)-3,3-dimethyl-1-methylcarbamoyl-butyl)-amide] the same measures were 0.603 µM and 0.0276 µM.
Turning to `Cc1nc([C@H](CC2CC2)NC(=O)c2ccc(C3CC3)c(OCC(F)(F)C(F)(F)F)n2)no1` [Example 300, 5-Cyclopropyl-6-(2,2,3,3,3-pentafluoro-propoxy)-pyridine-2-carboxylic acid [(S)-2-cyclopropyl-1-(5-methyl-[1,2,4]oxadiazol-3-yl)-ethyl]-amide], the results for the EC50 at human CB1 receptors and on human CB2 receptors were over 10 µM and 0.0318 µM, respectively.
For the molecule `NC(=O)[C@@H](NC(=O)c1ccc(C2CC2)c(OCC(F)(F)F)n1)c1ccccc1` [Example 301, 5-Cyclopropyl-6-(2,2,2-trifluoro-ethoxy)-pyridine-2-carboxylic acid ((S)-carbamoyl-phenyl-methyl)-amide], the EC50 at human CB1 receptors was over 10 µM; at human CB2 receptors, 0.13 µM.
For the molecule `O=C(NC(c1ccccn1)C(F)(F)F)c1ccc(C2CC2)c(OCC(F)(F)F)n1` (stereo not drawn) [Example 302, 5-Cyclopropyl-6-(2,2,2-trifluoro-ethoxy)-pyridine-2-carboxylic acid (2,2,2-trifluoro-1-pyridin-2-yl-ethyl)-amide], the EC50 is over 10 µM on human CB1 receptors and 0.587 µM on human CB2 receptors.
In the case of `CC(C)C[C@@H](CO)NC(=O)c1ccc(C2CC2)c(OCC(F)(F)F)n1` [Example 303, 5-Cyclopropyl-6-(2,2,2-trifluoro-ethoxy)-pyridine-2-carboxylic acid ((S)-1-hydroxymethyl-3-methyl-butyl)-amide], the EC50 is over 10 µM on human CB1 receptors and 0.038 µM at human CB2 receptors.
As to `O=C(NC1(c2nccs2)COC1)c1ccc(C2CC2)c(OCC(F)(F)F)n1` [Example 304, 5-Cyclopropyl-6-(2,2,2-trifluoro-ethoxy)-pyridine-2-carboxylic acid (3-thiazol-2-yl-oxetan-3-yl)-amide], the figures for the EC50 at human CB1 receptors and at human CB2 receptors were over 10 µM and 0.135 µM, respectively.
For `CC(C)(NC(=O)c1ccc(C2CC2)c(OCC(F)(F)F)n1)c1nccs1` [Example 305, 5-Cyclopropyl-6-(2,2,2-trifluoro-ethoxy)-pyridine-2-carboxylic acid (1-methyl-1-thiazol-2-yl-ethyl)-amide] the same measures were over 10 µM and 0.0503 µM.
Regarding `CC(C)(C)C(NC(=O)c1ccc(C2CC2)c(OCC(F)(F)F)n1)c1nccs1` (stereo not drawn) [Example 306, 5-Cyclopropyl-6-(2,2,2-trifluoro-ethoxy)-pyridine-2-carboxylic acid (2,2-dimethyl-1-thiazol-2-yl-propyl)-amide], the EC50 was over 10 µM on human CB1 receptors and 0.138 µM on human CB2 receptors.
For `CCC(CC)(NC(=O)c1ccc(N2CC(F)(F)C2)c(OCC2CC2)n1)C(=O)N1CC(F)(F)C1` [Example 307, 6-Cyclopropylmethoxy-5-(3,3-difluoro-azetidin-1-yl)-pyridine-2-carboxylic acid [1-(3,3-difluoro-azetidine-1-carbonyl)-1-ethyl-propyl]-amide] the same measures were over 10 µM and 0.0047 µM.
For `O=C(NNC1CCS(=O)(=O)C1)c1cccc(Cc2ccc(F)cc2)n1` (stereo not drawn) [Example 308, 6-(4-Fluoro-benzyl)-pyridine-2-carboxylic acid N′-(1,1-dioxo-tetrahydro-1λ^6-thiophen-3-yl)-hydrazide] the same measures were over 10 µM and 0.58 µM.
As for `CC(C)(NC(=O)c1ccc(C2CC2)c(OCC2CC2)n1)c1nc(N)no1` [Example 309, 5-Cyclopropyl-6-cyclopropylmethoxy-pyridine-2-carboxylic acid [1-(3-amino-[1,2,4]oxadiazol-5-yl)-1-methyl-ethyl]-amide], the EC50 is over 10 µM at human CB1 receptors and 0.176 µM at human CB2 receptors.
In the same order, the values of `CC(C)(C)[C@H](NC(=O)c1ccc(N2CC(F)(F)C2)c(OCC2CC2)n1)C(=O)N1CC(F)(F)C1` [Example 310, 6-Cyclopropylmethoxy-5-(3,3-difluoro-azetidin-1-yl)-pyridine-2-carboxylic acid [(S)-1-(3,3-difluoro-azetidine-1-carbonyl)-2,2-dimethyl-propyl]-amide] are over 10 µM and 0.0147 µM.
In the same order, the values of `CC(C)C[C@H](NC(=O)c1ccc(N2CC(F)(F)C2)c(OCC2CC2)n1)C(=O)N1CC(F)(F)C1` [Example 311, 6-Cyclopropylmethoxy-5-(3,3-difluoro-azetidin-1-yl)-pyridine-2-carboxylic acid [(S)-1-(3,3-difluoro-azetidine-1-carbonyl)-3-methyl-butyl]-amide] are over 10 µM and 0.0084 µM.
`CCOC(=O)C(CC)(CC)NC(=O)c1ccc(C(F)(F)F)c(OCC2CC2)n1` [Example 312, 2-[(6-Cyclopropylmethoxy-5-trifluoromethyl-pyridine-2-carbonyl)-amino]-2-ethyl-butyric acid ethyl ester]: the results for the EC50 at human CB1 receptors and on human CB2 receptors were over 10 µM and 0.0024 µM, respectively.
As to `CCC(CC)(NC(=O)c1ccc(C2CC2)c(O[C@H](CCO)C(F)(F)F)n1)C(=O)NC` [Example 313, 5-Cyclopropyl-6-((R)-3-hydroxy-1-trifluoromethyl-propoxy)-pyridine-2-carboxylic acid (1-ethyl-1-methylcarbamoyl-propyl)-amide], the values for the EC50 at human CB1 receptors and on human CB2 receptors were over 10 µM and 0.981 µM, respectively.
In the same order, the values of `CCC(CC)(NC(=O)c1ccc(C2CC2)c(OCC[C@@H](O)C(F)(F)F)n1)C(=O)NC` [Example 314, 5-Cyclopropyl-6-((R)-4,4,4-trifluoro-3-hydroxy-butoxy)-pyridine-2-carboxylic acid (1-ethyl-1-methylcarbamoyl-propyl)-amide] are 1.26 µM and 0.0161 µM.
Turning to `CC(C)CC(NC(=O)c1ccc(N2CC(F)(F)C2)c(OCC2CC2)n1)c1ccccn1` (stereo not drawn) [Example 315, 6-Cyclopropylmethoxy-5-(3,3-difluoro-azetidin-1-yl)-pyridine-2-carboxylic acid (3-methyl-1-pyridin-2-yl-butyl)-amide], the EC50 at human CB1 receptors stood at 2.32 µM; at human CB2 receptors, 0.191 µM.
In the same order, the values of `CCC(CC)(NC(=O)c1ccc(C(F)(F)F)c(OCC2CC2)n1)C(=O)N1CC(F)(F)C1` [Example 316, 6-Cyclopropylmethoxy-5-trifluoromethyl-pyridine-2-carboxylic acid [1-(3,3-difluoro-azetidine-1-carbonyl)-1-ethyl-propyl]-amide] are over 10 µM and 0.0031 µM.
In the same order, the values of `CC(C)C[C@H](NC(=O)c1cccc(C(O)c2ccc(F)cc2)n1)C(N)=O` (stereo partly drawn) [Example 317, 6-[(4-Fluoro-phenyl)-hydroxy-methyl]-pyridine-2-carboxylic acid ((S)-1-carbamoyl-3-methyl-butyl)-amide] are over 10 µM and 0.0242 µM.
Regarding `Cc1nc([C@H](CC(C)C)NC(=O)c2cccc(C(O)c3ccc(F)cc3)n2)no1` (stereo partly drawn) [Example 318, 6-[(4-Fluoro-phenyl)-hydroxy-methyl]-pyridine-2-carboxylic acid [(S)-3-methyl-1-(5-methyl-[1,2,4]oxadiazol-3-yl)-butyl]-amide], the values for the EC50 on human CB1 receptors and at human CB2 receptors were over 10 µM and 0.0251 µM, respectively.
As to `CCC(CC)(NC(=O)c1ccc(C2CC2)c(O[C@@H](CCO)C(F)(F)F)n1)C(=O)NC` [Example 319, 5-Cyclopropyl-6-((S)-3-hydroxy-1-trifluoromethyl-propoxy)-pyridine-2-carboxylic acid (1-ethyl-1-methylcarbamoyl-propyl)-amide], the results for the EC50 on human CB1 receptors and on human CB2 receptors were over 10 µM and 0.344 µM, respectively.
In the same order, the values of `CCC(CC)(NC(=O)c1ccc(C2CC2)c(OCC[C@H](O)C(F)(F)F)n1)C(=O)NC` [Example 320, 5-Cyclopropyl-6-((S)-4,4,4-trifluoro-3-hydroxy-butoxy)-pyridine-2-carboxylic acid (1-ethyl-1-methylcarbamoyl-propyl)-amide] are 0.323 µM and 0.0044 µM.
